Here are results for 2 compounds from patent US20170189474A1, “ANTIFUNGAL THERAPY FOR THE TREATMENT OF HIRSCHSPRUNG-ASSOCIATED ENTEROCOLITIS” (Cedars-Sinai Medical Center, priority 2014, published 2017).

The assay concerns 129SvEdnrb−/− (KO) mice with colonic aganglionosis. Description: Histological enterocolitis scoring after medicated water treatment in murine model of HAEC. The conditions noted are these: Ednrb−/− (KO) mice, antifungal only in drinking water, vs untreated KO; trend, did not reach significance. It is filed as in vivo, mouse. From the text:
Regular water treated KO mice (KO_H2O) and their wild type littermates (WT_H2O) were used as untreated control. […] The total enterocolitis score of each treatment was compared with KO_H2O by using unpaired two-tailed Student's t-test. Results are shown as Mean±SEM, *P<0.05; **P<0.01. We test antibiotic and antifungal agents and their combinations on the 129sv/Ednrb mouse strain shown to be a model of HAEC. The experimental groups and protocol are described below: Medicated water which contains enrofloxacin (Baytril), metronidazole, vancomycin, natamycin ([…]), fluconazole, and/or […] (Isavuconazole sulfate) are administered to pregnant mice from the time that the pregnancy is noted, through weaning of the pups. In other words, the administration of medicated water to moms are stopped after weaning, and then continued with the weaned pups. Six groups of animals (129sv/Ednrb-null mouse strain, n=5-8 per group) with different treatment are described as below. The dosage was calculated by the concentration of antibiotic and antifungal agents and assuming a mouse taking 5 ml water per day based on published data. Group 1. […] Significant changes in makeup between the samples will be verified by quantitative PCR. […]

Turning to `C[C@@H]1C/C=C/C=C/C=C/C=C/[C@H](O[C@@H]2O[C@H](C)[C@@H](O)[C@H](N)[C@@H]2O)C[C@@H]2O[C@](O)(C[C@@H](O)C[C@H]3O[C@@H]3/C=C/C(=O)O1)C[C@H](O)[C@H]2C(=O)O` [AFX1, natamycin], the “reduction of mean enterocolitis score” value is given as 42%. As for `OC(Cn1cncn1)(Cn1cncn1)c1ccc(F)cc1F` [AFX2, fluconazole], the “reduction of mean enterocolitis score” value was 34%.
